Data taken from paper PMC2014744, “A novel p38α MAPK inhibitor suppresses brain proinflammatory cytokine up-regulation and attenuates synaptic dysfunction and behavioral deficits in an Alzheimer's disease mouse model” (Journal of Neuroinflammation, 2007).
≈ marks a conversion by molar mass, not a printed value. Entries after “also recorded” stand apart in the source; their conditions may differ.

How the values were obtained:
[1] = molecular target: T1, p38β (Homo sapiens, UniProt Q15759); experiment: Millipore/Upstate kinase profiling: p38β; format: biochemical; conditions: 20 μM compound
T1 construct: purchased Millipore (KinaseProfiler kinase screening service)
Description: (§3) Enzyme activity assays were done in a final volume of 50 μl and each point was tested in duplicate. […] When compounds were tested for kinase inhibitory activity, 10X stock solutions of compounds were prepared in DMSO or water, and control samples contained the same final concentration of solvent as the samples containing compound. Data are expressed as percent of the maximal enzyme activity, where enzyme activity in the absence of compound is taken as 100%. IC50 values were calculated by a nonlinear regression data analysis using Microsoft Excel. Selectivity against pathway or structurally related protein kinases was done using purified kinases and standard in vitro assays described previously [69, 70], and included use of the Millipore (Billerica, MA) kinase screening service at 20 μM final concentration of 069A and 90 μM final concentration of ATP.

[2] = molecular target: T2, MKK4 (Mus musculus, UniProt P47809); experiment: Millipore/Upstate kinase profiling: MKK4; format: biochemical; conditions: 20 μM compound; 90 μM ATP; activity without inhibitor = 100%
T2 construct: purchased Millipore (KinaseProfiler kinase screening service)
T2 sequence (P47809 1-397): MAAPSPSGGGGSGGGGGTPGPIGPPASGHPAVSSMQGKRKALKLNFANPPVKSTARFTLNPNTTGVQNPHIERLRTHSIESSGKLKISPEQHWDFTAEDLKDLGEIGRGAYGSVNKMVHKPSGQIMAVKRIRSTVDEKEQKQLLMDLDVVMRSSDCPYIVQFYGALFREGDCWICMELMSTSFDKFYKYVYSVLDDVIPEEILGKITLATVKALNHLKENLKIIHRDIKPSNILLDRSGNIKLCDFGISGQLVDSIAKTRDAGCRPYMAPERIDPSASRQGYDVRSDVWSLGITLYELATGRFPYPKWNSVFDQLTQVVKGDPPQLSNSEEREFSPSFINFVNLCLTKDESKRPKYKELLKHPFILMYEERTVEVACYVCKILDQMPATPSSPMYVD

[3] = molecular target: T3, MKK7β (Homo sapiens, UniProt O14733); experiment: Millipore/Upstate kinase profiling: MKK7β; format: biochemical; conditions: 20 μM compound; 90 μM ATP; activity without inhibitor = 100%
T3 construct: purchased Millipore (KinaseProfiler kinase screening service)
T3 sequence (O14733 1-419): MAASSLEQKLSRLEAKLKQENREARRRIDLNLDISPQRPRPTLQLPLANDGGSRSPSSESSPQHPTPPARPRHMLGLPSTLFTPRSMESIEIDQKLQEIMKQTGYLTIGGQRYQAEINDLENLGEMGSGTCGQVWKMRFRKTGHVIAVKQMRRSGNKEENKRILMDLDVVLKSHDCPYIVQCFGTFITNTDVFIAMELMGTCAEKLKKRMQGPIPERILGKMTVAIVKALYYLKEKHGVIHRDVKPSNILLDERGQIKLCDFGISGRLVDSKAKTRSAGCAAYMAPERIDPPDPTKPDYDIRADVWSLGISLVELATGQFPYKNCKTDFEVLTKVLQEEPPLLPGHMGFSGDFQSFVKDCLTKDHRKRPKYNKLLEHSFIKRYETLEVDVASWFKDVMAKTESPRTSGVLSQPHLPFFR

[4] = system: 44 other purified protein kinases; experiment: Millipore kinase screen, summary for the non-p38 kinases; format: biochemical; conditions: 20 μM compound, Table 1
Description: as §3

[5] = Aqueous solubility determination (log S); format: physicochemical; conditions: thermodynamic from solid, Milli-Q water, 22°C
Description: For aqueous solubility (log S) determination, compound 069A was weighed on a Sartorius AG (Goettingen, Germany) analytical balance, and Milli-Q water was added to create an oversaturated solution (suspension). Sample tubes were stirred for 24 hrs at ambient temperature (t = 22°C). 1 mL of the samples were centrifuged in a microfuge at 16,000 × g for 10 min, and 20 μL was subjected to reverse-phase HPLC analysis to determine the concentration of the compound (caq). The concentration of compound in the aqueous phase (caq) was determined by peak detection at 254 nm at the appropriate retention time relative to a standard curve obtained from serial dilutions of the compound. The log S was calculated as common logarithm (log10) of caq.

[6] = Lipophilicity determination (log P), shake-flask; format: physicochemical; conditions: 1-octanol/water shake-flask, 25°C
Description: The partition coefficient was determined by the shake-flask method. The starting solution (0.3 mg/mL) of analyzed compound was prepared in presaturated 1-octanol (Sigma-Aldrich, St. Louis, MO). 1 mL of the octanol phase was agitated on a plate shaker with 10 mL of presaturated Milli-Q water for 2 hrs at 25°C. After partitioning, 1 mL of the aqueous phase was centrifuged in a microfuge for 10 min at 16,000 × g. 20 μL of the sample were analyzed with reversed-phase HPLC as described above to determine the concentration of the aqueous phase (caq). The log P is calculated according to the formula: log P = log10 [(0.3 – caq)/caq].

[7] = Oral bioavailability: compound in plasma after oral gavage; format: in vivo, C57Bl/6 mice; conditions: mice, 2.5 mg/kg oral gavage; earliest time point analyzed
Description: (§1) Analysis of oral bioavailability (concentration of compound in the blood as a function of time after oral administration) and brain uptake was done by a modification of that previously described. Briefly, 069A (2.5 mg/kg) was administered to C57Bl/6 mice by oral gavage in a 0.5% (w/v) carboxymethylcellulose suspension. At 5, 15, 30, 60, and 120 min after compound administration, blood was collected in heparinized tubes from anesthetized animals and plasma obtained by centrifugation. After perfusion, brains were harvested, homogenized in 0.1% formic acid and deproteinized with ice-cold acetonitrile. After centrifugation to remove precipitated protein, the brain homogenate supernatants were further diluted with 0.1% formic acid. The plasma samples were acidified by diluting with 0.1% formic acid (1:3, v:v). Solid phase extraction followed by HPLC analysis was used to quantify the amount of compound in the plasma and brain supernatants, with compound MW01-6-189WH used as an internal standard. Briefly, 30 mg cartridges (Oasis® HLB, Waters) were conditioned with 1 mL of acetonitrile and equilibrated with 1 mL of water. Acidified samples were loaded onto the cartridge followed by a 1 mL wash with 5% acetonitrile. Compound was eluted from the cartridge using 100% acetonitrile. The eluate was evaporated to dryness, reconstituted in 60% acetonitrile/0.1% formic acid/water and analyzed by HPLC. […]

[8] = Brain uptake: compound in brain homogenate after oral gavage; format: in vivo, C57Bl/6 mice; conditions: mice, 2.5 mg/kg oral gavage; brain homogenate after perfusion
Description: as §1

[9] = system: C57Bl/6 mice; experiment: Liver toxicity screen (histology after two weeks of daily oral dosing); format: in vivo; conditions: 2.5 mg/kg oral gavage once daily for 2 weeks
Description: Screening for histological liver injury after chronic, therapeutic dose administration of compound was done as previously described. Briefly, C57Bl/6 mice were administered by oral gavage either […] (2.5 mg/kg) or solvent control (DMSO) in a 0.5% (w/v) carboxymethylcellulose suspension. Compound or vehicle administration was once daily for two weeks. Livers were then removed, fixed in 4% (v/v) paraformaldehyde, and paraffin-embedded for histology. To assess histological toxicity, 4 μm liver sections were stained with haematoxylin and eosin. Two independent observers blinded to the treatment groups performed microscopic assessment of the tissue for injury by using a semi-quantitative histological scoring system that considers architecture features (normal to extensive fibrosis), cellular features (normal to extensive edema and widespread necrosis), and degree of inflammatory infiltrate (normal to extensive infiltrate).

[10] = Stability in human liver microsomes; format: in vitro ADME; conditions: 5 μM compound; for metabolic stability in human liver microsomes compared with 069A (in words): Fig. 4D, 10 or 30 min incubation
Description: Briefly, triplicate reaction mixtures contained 0.1 M potassium phosphate buffer (pH 7.4) and a final concentration of the following components: 1 – 1.6 mg/ml total microsomal protein, 5 μM test compound, 1.3 mM NADPH, 3.3 mM MgCl2, 0.4 U/ml glucose-6-phosphate dehydrogenase, and 3.3 mM glucose-6-phosphate in a total volume of 300 μl. Mixtures were incubated at 37°C for 10 or 30 minutes. […] HPLC was performed as described above with 0.1% (v/v) formic acid in water as reagent A and acetonitrile with 0.1% (v/v) formic acid in water as reagent B. Peak quantification was done based upon absorption measurements at 260 nm relative to a standard curve obtained by serial dilutions of compounds.

[11] = system: C57Bl/6 mice infused ICV with human oligomeric Aβ1–42; experiment: AD mouse model (ICV infusion of human oligomeric Aβ1–42): hippocampal protein levels by ELISA; format: in vivo; conditions: 2.5 mg/kg oral once daily for 2 weeks from day 21 after start of Aβ infusion; day 60
Description: (§2) The four-week intracerebroventricular (ICV) infusion of human oligomeric Aβ1-42 or Hepes/HDL vehicle into C57Bl/6 mice was done as previously described. Mice were administered by oral gavage either […] (2.5 mg/kg) or solvent control (DMSO) in a 0.5% (w/v) carboxymethylcellulose suspension. Compound administration began at day 21 after the start of Aβ infusion, and continued on a once daily administration schedule for 14 days. Beginning at day 50 after the start of Aβ infusion, the Y-maze test of spontaneous alternation was done once daily for 10 days to evaluate hippocampal-dependent spatial learning as described previously. At day 60, mice were anesthetized, perfused, and sacrificed as previously described. Hippocampal extract supernatants were prepared by dounce and sonication, followed by centrifugation as described previously. Levels of the proinflammatory cytokines IL-1β and TNFα in hippocampal supernatants were measured by ELISA (Biosource International) per the manufacturer's instructions. S100B and synaptophysin levels were measured by ELISA as previously described.

[12] = system: C57Bl/6 mice infused ICV with human oligomeric Aβ1–42; experiment: AD mouse model (ICV infusion of human oligomeric Aβ1–42): Y-maze spontaneous alternation; format: in vivo; conditions: 2.5 mg/kg oral once daily for 2 weeks from day 21; Y-maze days 50-60
Description: as §2

[13] = molecular target: T4, p38α/SAPK2α (Homo sapiens, UniProt Q16539); experiment: In vitro p38α MAPK protein kinase assay (myelin basic protein phosphorylation, 32P-ATP); format: biochemical; conditions: Fig. 3B; for p38α MAPK inhibitory activity (in words): increasing concentrations of compound; for fold less active than 069A as p38α MAPK inhibitor: relative to 069A
T4 construct: purchased Millipore (Billerica, MA)
Description: Concentration-dependent inhibition of protein kinase activity was done essentially as previously described. Active p38α/SAPK2α enzyme was obtained from Millipore (Billerica, MA), and bovine myelin basic protein substrate was obtained from Sigma-Aldrich (St. Louis, MO). Enzyme activity assays were done in a final volume of 50 μl and each point was tested in duplicate. Assays were done by incubation with 0.33 mg/ml (18 μM) myelin basic protein, 100 μM ATP and γ-[^32P]ATP (specific activity > 300 cpm/pmol) in assay buffer (50 mM HEPES, pH 7.5, 5 mM MgCl2, 150 mM KCl, 15 mM NaCl, 1 mM DTT). Reactions were initiated by addition of the active p38α kinase at a final concentration of 2 μg/ml, and incubated for 10 min at 30°C. […] When compounds were tested for kinase inhibitory activity, 10X stock solutions of compounds were prepared in DMSO or water, and control samples contained the same final concentration of solvent as the samples containing compound. Data are expressed as percent of the maximal enzyme activity, where enzyme activity in the absence of compound is taken as 100%. IC50 values were calculated by a nonlinear regression data analysis using Microsoft Excel. Selectivity against pathway or structurally related protein kinases was done using purified kinases and standard in vitro assays described previously, and included use of the Millipore (Billerica, MA) kinase screening service at 20 μM final concentration of 069A and 90 μM final concentration of ATP.

[14] = cited from earlier work
[15] = system: p38α MAPK; conditions: background statement, no reference given; cited from earlier work

T4 sequence (Q16539 whole entry): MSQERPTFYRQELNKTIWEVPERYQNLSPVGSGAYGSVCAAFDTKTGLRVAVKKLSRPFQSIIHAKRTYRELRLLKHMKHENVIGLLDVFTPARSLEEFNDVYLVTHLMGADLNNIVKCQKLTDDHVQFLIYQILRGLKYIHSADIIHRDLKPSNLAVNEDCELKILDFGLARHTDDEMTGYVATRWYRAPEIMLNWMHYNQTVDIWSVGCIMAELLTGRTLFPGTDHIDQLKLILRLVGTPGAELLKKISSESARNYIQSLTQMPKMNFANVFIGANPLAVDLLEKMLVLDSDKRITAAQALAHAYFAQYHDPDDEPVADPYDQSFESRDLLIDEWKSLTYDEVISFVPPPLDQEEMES
T1 sequence (Q15759 whole entry): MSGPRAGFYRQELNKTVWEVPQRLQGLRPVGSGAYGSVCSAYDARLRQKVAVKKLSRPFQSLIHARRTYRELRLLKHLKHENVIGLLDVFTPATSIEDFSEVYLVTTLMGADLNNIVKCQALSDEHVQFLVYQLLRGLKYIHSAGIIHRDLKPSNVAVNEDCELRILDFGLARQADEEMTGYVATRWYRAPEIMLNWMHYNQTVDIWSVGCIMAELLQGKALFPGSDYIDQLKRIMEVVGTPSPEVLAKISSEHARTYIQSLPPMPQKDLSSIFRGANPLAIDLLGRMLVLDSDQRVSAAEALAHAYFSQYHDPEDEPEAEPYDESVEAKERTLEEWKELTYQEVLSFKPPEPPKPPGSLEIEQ

For `c1ccc(-c2nnc(N3CCN(c4ncccn4)CC3)cc2-c2ccncc2)cc1` [MW01-2-069A-SRM], the “% kinase activity (p38β)” value ([1]; 90 μM ATP, activity without inhibitor = 100%) was 30%, the “inhibition of p38β (in words)” value ([1]; Millipore screen) was “partial inhibition” and the “% kinase activity (MKK4)” value [2] was 117%. For the same compound, the “% kinase activity (MKK7β)” value [3] was 103%, the “inhibition of 44 other purified protein kinases (in words)” value [4] was “little or no inhibition” and the solubility at 24 h [5] was 9.54 µg/mL (≈ 24.1 µM). For the same compound, the logP at 2 h [6] was 3.18, the “time at which compound is detected in plasma after oral administration” value [7] was ≤ 5 min and the “time at which compound appears in brain after oral administration” value [8] was ≤ 5 min. The “time of peak brain concentration after oral administration” value [8] was 5 to 15 min, the “adverse clinical effects during treatment” value [9] was “no adverse clinical effects” and the histological liver injury ([9]; compared with vehicle, 2.5 mg/kg) was “did not induce any histological indices of liver tissue injury; also recorded: no significant liver toxicity”. For the same compound, the “compound remaining after incubation with human liver microsomes” value ([10]; 10 min incubation, 37°C) was ~ 70%, the “Aβ-induced loss of synaptophysin in hippocampal extracts” value [11] was “attenuates this loss of synaptophysin” and the “Aβ-induced overproduction of IL-1β in hippocampal extracts” value [11] was “significantly reduced”. For the same compound, the “Aβ-induced overproduction of S100B in hippocampal extracts” value [11] was “significantly reduced”, the “Aβ-induced overproduction of TNFα in hippocampal extracts” value [11] was “significantly reduced” and the “Aβ-induced Y-maze behavioral deficit” value [12] was “ameliorates the Y-maze behavioral deficit”.
With `c1ccc(-c2ccc(N3CCN(c4ncccn4)CC3)nn2)cc1` [MW01-3-183WH, 3-phenyl-6-(4-(pyrimidin-2-yl)piperazin-1-yl)pyridazine] the “p38α MAPK inhibitory activity (in words)” value [13] was “lacks inhibitory activity” and the “fold less active than 069A as p38α MAPK inhibitor” value [13] was > 100 fold.
In the case of `c1ccc(-c2nnc(N3CCN(c4ncccn4)CC3)cc2-c2cccnc2)cc1` [MW01-4-119SRM, 3-phenyl-4-(pyridin-3-yl)-6-(4-(pyrimidin-2-yl)piperazin-1-yl)pyridazine], the “p38α MAPK inhibitory activity (in words)” value [13] is reported as “major loss of activity” and the “fold less active than 069A as p38α MAPK inhibitor” value [13] is reported as > 100 fold.
With `c1ccc(-c2cc(-c3ccncc3)c(N3CCN(c4ncccn4)CC3)nn2)cc1` [MW01-6-189WH] the “p38α MAPK inhibitory activity (in words)” value [13] was “does not generate MAPK inhibitory activity” and the “fold less active than 069A as p38α MAPK inhibitor” value [13] was > 100 fold.
In the case of `Cc1cc(-c2ccccc2)nnc1NCCN1CCOCC1` [Minaprine], the “metabolic stability in human liver microsomes compared with 069A (in words)” value [10] is reported as “it is more stable than the structurally related, clinical CNS drug Minaprine”.
For `Cc1cc(-c2ccccc2)nnc1N1CCN(c2ncccn2)CC1` [Minozac], the “metabolic stability in human liver microsomes compared with 069A (in words)” value [10] is given as 069A is not as metabolically stable as Minozac, the blood-brain barrier penetrance [14] is given as “good blood-brain barrier penetrance” and the “p38α MAPK inhibition (in words)” value [15] is given as “not an inhibitor”.
